Measured values reported in the supplement of paper PMC12592484.

Columns and labels:
Assay in all cases: drug sensitivity score (DSS2, normalised partial AUC of dose-response, 72 h CellTiter-Glo viability) (DSS (dimensionless)); higher = more sensitive (stronger growth inhibition / cytotoxicity); extreme values may be limits of the assay
[1] = system: CAF#7 (primary prostate cancer-associated fibroblasts of myCAF-like type)
Outline: (§1)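 In BREEZE, the drug sensitivity score was derived as a partial area under a fitted logistic dose–response curve over the log of that curve's upper asymptote; a higher score marks a more sensitive response. The input came from low-passage primary prostate cancer-associated fibroblasts, PF179T, WPMY-1, LNCaP and 22Rv1 cells, each seeded into 384-well plates with compounds pre-dispensed at five doses spanning a 10,000-fold range. CellTiter-Glo 2.0 luminescence after 72 h gave viability, which was normalized to vehicle and positive-control wells.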

[2] = system: CAF#1 (primary prostate cancer-associated fibroblasts of myCAF-like type)
Outline: as §1

[3] = system: CAF#2 (primary prostate cancer-associated fibroblasts of iCAF-like type)
Outline: as §1

[4] = system: PF179T
Outline: as §1

[5] = system: CAF#5 (primary prostate cancer-associated fibroblasts of myCAF-like type)
Outline: as §1

[6] = system: 22Rv1
Outline: as §1

[7] = system: CAF#3 (primary prostate cancer-associated fibroblasts of myCAF-like type)
Outline: as §1

[8] = system: WPMY-1
Outline: as §1

[9] = system: CAF#4 (primary prostate cancer-associated fibroblasts of iCAF-like type)
Outline: as §1

[10] = system: LNCAP
Outline: as §1

[11] = system: CAF#6 (primary prostate cancer-associated fibroblasts of iCAF-like type)
Outline: as §1

SMILES | drug sensitivity score [1] | drug sensitivity score [2] | drug sensitivity score [3] | drug sensitivity score [4] | drug sensitivity score [5] | drug sensitivity score [6] | drug sensitivity score [7] | drug sensitivity score [8] | drug sensitivity score [9] | drug sensitivity score [10] | drug sensitivity score [11]
CN(C)C(=N)NC(=N)N [Metformin] (tested concentration range 10-100000 nM) | 0 | 0 | 0 | 0 | 0 | 0 | 0 | 0 | 0 | 0 | 0
Nc1ncn([C@H]2C[C@H](O)[C@@H](CO)O2)c(=O)n1 [Decitabine] (tested concentration range 1-10000 nM) | 0 | 0 | 0.8 | 1.8 | 1.6 | 1.1 | 0.1 | 0.8 | 0 | 0 | 0.6
CN1CCN(c2cc(C(=O)Nc3ccc4c(c3)-c3c(c(C(N)=O)nn3-c3ccc(F)cc3)CC4)c(Cl)cn2)CC1 [PHA 408] (tested concentration range 1-10000 nM) | 3.7 | 7.2 | 7 | 1.4 | 5.9 | 6.1 | 2.9 | 4.6 | 4.2 | 7.4 | 1.2
C/C=C1\NC(=O)[C@H]2CSSCC/C=C/[C@H](CC(=O)N[C@H](C(C)C)C(=O)N2)OC(=O)[C@H](C(C)C)NC1=O [Romidepsin] (tested concentration range 0.1-1000 nM) | 24.4 | 23.1 | 23.4 | 22.5 | 25 | 27.9 | 23.1 | 30 | 21.4 | 35.5 | 26.6
CC(C)c1c(C(=O)Nc2ccccc2)c(-c2ccccc2)c(-c2ccc(F)cc2)n1CC[C@@H](O)C[C@@H](O)CC(=O)O [Atorvastatin] (tested concentration range 1-10000 nM) | 5.9 | 4.7 | 8.4 | 3 | 5.4 | 3.3 | 6.1 | 2.7 | 3.5 | 1.1 | 5.2
COc1cc(OC2CCN(C)CC2)ccc1Nc1ncc2c(n1)n(C1CCCC1)c(=O)n2C [AZ 3146] (tested concentration range 1-10000 nM) | 2.8 | 1.8 | 4.3 | 2.3 | 0.7 | 7.5 | 3.1 | 4.8 | 0.8 | 4.6 | 1.6
O=C1Cc2cc(C(=O)NC3C[C@H]4CC[C@@H](C3)N4S(=O)(=O)CC3CCN(CCCC(F)(F)F)CC3)c(Cl)cc2N1 (stereo partly drawn) (tested concentration range 1-10000 nM) | 0 | 0 | 0 | 0.5 | 0 | 0 | 0 | 0 | 0 | 0 | 0
C=CC(=O)Nc1cccc(Nc2nc(Nc3ccc(N4CCN(C(C)=O)CC4)cc3OC)ncc2C(F)(F)F)c1 [Rociletinib] (tested concentration range 0.5-5000 nM) | 4 | 6.6 | 8.3 | 5 | 5.2 | 6 | 2.1 | 7 | 6.8 | 2.6 | 2.6
CC(C)Nc1cc(-c2c[nH]c(C(=O)N[C@H](CO)c3cccc(Cl)c3)c2)c(Cl)cn1 [Ulixertinib] (tested concentration range 1-10000 nM) | 4.3 | 0.2 | 2.2 | 1.9 | 0.3 | 9.6 | 0 | 5.7 | 1.2 | 6.1 | 2
COc1cc(CCc2cc(NC(=O)c3ccc(N4CC(C)NC(C)C4)cc3)n[nH]2)cc(OC)c1 (stereo not drawn) [AZD4547] (tested concentration range 0.1-1000 nM) | 13.1 | 1.1 | 2.5 | 3.5 | 1.3 | 0 | 6.7 | 0.2 | 0.6 | 0.3 | 5.8
CCn1c(=O)c(-c2ccc(Cl)cc2Cl)cc2cnc(Nc3ccc(N4CCNCC4)c(F)c3)nc21 [FRAX486] (tested concentration range 0.5-5000 nM) | 8.9 | 12.2 | 14.7 | 12.4 | 11.4 | 1.1 | 9.1 | 8.6 | 9.7 | 6.3 | 9
COc1nc(N)nc2c1ncn2[C@@H]1O[C@H](CO)[C@@H](O)[C@@H]1O [Nelarabine] (tested concentration range 1-10000 nM) | 0 | 0 | 0 | 0 | 0 | 0 | 0 | 0 | 0 | 0 | 0
Oc1ncnc2[nH]ncc12 [Allopurinol] (tested concentration range 1-10000 nM) | 0 | 0 | 0 | 0 | 0 | 0 | 0 | 0 | 0 | 0 | 0
CC[C@H](C)C(=O)O[C@H]1C[C@H](O)C=C2C=C[C@H](C)[C@H](CC[C@@H](O)C[C@@H](O)CC(=O)O)[C@H]21 [Pravastatin] (tested concentration range 1-10000 nM) | 0 | 0 | 0.3 | 0 | 0 | 0 | 0 | 0 | 0 | 0 | 0
CC[C@]1(O)C[C@H]2CN(CCc3c([nH]c4ccccc34)[C@@](C(=O)OC)(c3cc4c(cc3OC)N(C=O)[C@H]3[C@@](O)(C(=O)OC)[C@H](OC(C)=O)[C@]5(CC)C=CCN6CC[C@]43[C@@H]65)C2)C1 [Vincristine] (tested concentration range 0.1-1000 nM) | 11.5 | 4.4 | 5.1 | 4.5 | 4.3 | 12.3 | 4.7 | 12.1 | 2 | 26 | 5.6
C=CC(=O)N1CCC(Oc2cc3c(Nc4ccc(Cl)c(Cl)c4F)ncnc3cc2OC)CC1 [Poziotinib] (tested concentration range 0.1-1000 nM) | 0 | 0 | 0 | 0 | 0 | 0.5 | 0.3 | 1 | 0 | 3.9 | 0
Clc1ccc(C(c2ccccc2Cl)C(Cl)Cl)cc1 (stereo not drawn) [Mitotane] (tested concentration range 1-10000 nM) | 0 | 0 | 0 | 0 | 0 | 0 | 0.2 | 0 | 0 | 1.8 | 0
Cc1c(N)nc([C@H](CC(N)=O)NC[C@H](N)C(N)=O)nc1C(=O)N[C@H](C(=O)N[C@H](C)[C@@H](O)[C@H](C)C(=O)N[C@H](C(=O)NCCc1nc(-c2nc(C(=O)NCCC[S+](C)C)cs2)cs1)[C@@H](C)O)[C@@H](OC1OC(CO)C(O)C(O)C1OC1OC(CO)C(O)C(OC(N)=O)C1O)c1cnc[nH]1 (stereo partly drawn) [Bleomycin] (tested concentration range 1-10000 nM) | 9.7 | 0.6 | 3.9 | 3.3 | 3.2 | 3.7 | 5.7 | 0.4 | 5.7 | 7.5 | 7.7
CN1CCC(COc2cnc(-c3cccc(Cn4nc(-c5cccc(C#N)c5)ccc4=O)c3)nc2)CC1 [Tepotinib] (tested concentration range 0.1-1000 nM) | 0 | 0 | 3.4 | 2.4 | 3 | 0 | 0 | 0.7 | 0.5 | 0 | 0
Cc1c2oc3c(C)ccc(C(=O)N[C@@H]4C(=O)N[C@H](C(C)C)C(=O)N5CCC[C@H]5C(=O)N(C)CC(=O)N(C)[C@@H](C(C)C)C(=O)O[C@@H]4C)c3nc-2c(C(=O)N[C@@H]2C(=O)N[C@H](C(C)C)C(=O)N3CCC[C@H]3C(=O)N(C)CC(=O)N(C)[C@@H](C(C)C)C(=O)O[C@@H]2C)c(N)c1=O [Dactinomycin] (tested concentration range 0.1-1000 nM) | 22.6 | 24.7 | 23.2 | 17.2 | 21.1 | 31.8 | 23 | 26.5 | 17.2 | 39.3 | 19.8
COC[C@H](NC(=O)c1cnc(C)s1)C(=O)N[C@@H](COC)C(=O)N[C@@H](Cc1ccccc1)C(=O)[C@@]1(C)CO1 [Oprozomib] (tested concentration range 0.2-2500 nM) | 9.7 | 14 | 16 | 14.6 | 13.1 | 20.7 | 10.3 | 25.7 | 11.4 | 20.8 | 10.5
COc1cccc2c1C(=O)c1c(O)c3c(c(O)c1C2=O)C[C@@](O)(C(C)=O)C[C@@H]3O[C@H]1C[C@H](N)[C@H](O)[C@H](C)O1 [Daunorubicin] (tested concentration range 0.1-1000 nM) | 8.4 | 7.3 | 9.4 | 8.6 | 6.6 | 12.9 | 6.4 | 10.7 | 4.2 | 17.5 | 7.9
N#Cc1ccnc(N2C(=O)CC[C@H]2C(=O)N(c2cncc(F)c2)[C@H](C(=O)NC2CC(F)(F)C2)c2ccccc2Cl)c1 [Ivosidenib] (tested concentration range 1-10000 nM) | 0 | 0.7 | 1.4 | 0 | 0.3 | 0 | 0 | 0.2 | 2 | 0 | 0
